Measured values published in patent publication US8697685B2, “Chemical compounds” (GlaxoSmithKline LLC, priority 2008, dated 2014).

tested on: AKT phosphorylation at T308 in PC-3 cells; assay: Phospho-AKT (T308) ELISA in PC3 cells; assay type: cell-based; details: Homo sapiens, 6 hours compound treatment, in at least one experimental run, read-out: IC50 for inhibition of AKT phosphorylation at T308 in PC-3 cells
Protocol: Phospho-AKT (S473, T308, Total AKT) and phospho-RSK ELISA
PC3 cells (ATCC, Manassas, Va.) were plated in 96-well flat bottom plates (Corning, Lowell, Mass.) at a density of 15,000 cells/well in RPMI 1640 medium supplemented with 10% FBS. Cells were incubated at 37° C., 5% CO2 for 18-20 h. Compounds (dissolved in 100% DMSO) were diluted in an 11-point 3-fold dilution in DMSO. Compound dilution stocks were further diluted in RPMI 1640 with 10% FBS and added to each cell well. DMSO without compound was used in control wells. Final concentration of DMSO in each well was 0.15%. After 6 hours at 37° C. cells were washed with cold PBS (without calcium or magnesium) and lysed in lysis buffer (Meso Scale Discovery, Gaithersburg, Md.) supplemented with 1 protease inhibitor tablet/10 ml (Roche, Indianapolis, Ind.), 10 mM NaF, and 200 μl/10 ml Sigma phosphatase inhibitor 1 & 2 (Sigma Aldrich, St Louis, Mo.) for 30 min at 4° C. All washes were performed on a Bio Tek ELx405 plate washer (Bio Tek Instruments, Winooski, Vt.).
ELISA plates (Meso Scale Discovery; AKT Duplex, cat. N41100B-1; phospho AKT, cat. N411CAB-1; RSK, cat. N41ZB-1) were prepared by the addition of blocking buffer (3% Blocker A diluted in wash buffer (Meso Scale Discovery) for AKT duplex assay and phospho AKT assays; 5% Blocker A/1% Blocker B in Tris-buffered saline for RSK) for 1 hour and washed with wash buffer. Lysates were transferred to assay wells and incubated overnight at 4° C. Following washing with wash buffer, detection buffer (1% Blocker A in wash buffer for AKT duplex and phospho AKT or 1% Blocker A in TBS for RSK) with appropriate antibodies was added. Detection of AKT duplex and phospho AKT was carried out using a sulfo-tagged detection antibodies (Meso Scale Discovery). Detection of phospho-RSK was carried out sequentially with anti phospho-RSK1 (S221)/RSK2 (S227) (R&D systems, Minneapolis, Minn., cat. AF892) and goat anti-rabbit sulfo-tag antibody (cat R32AB-1; Meso Scale Discovery). Plates were incubated for 1 hour at room temperature and washed with wash buffer. Plates were read on a SECTOR™ Imager 6000 (Meso Scale Discovery) using Workbench software (Meso Scale Discovery) following addition of read buffer (Meso Scale Discovery) to each well. For analysis, phospho-AKT (S473) signals were normalized to total AKT, while phospho-AKT (T308) and phospho-RSK signals were analyzed without normalization. All values were expressed as percent of the DMSO-treated controls. IC50s were determined from inhibition curves using XLfit4 software (IDBS, Guildford, UK).

**Q.** How did the IC50 turn out when `CNc1nc(-c2ccc3c(N)n[nH]c3c2)cc(N2CC(C(=O)NC3CCCCC3)CCC2C(F)(F)F)n1` (stereo not drawn) [Example 49, Cis-1-[6-(3-Amino-1H-indazol-6-yl)-2-(methylamino)-4-pyrimidinyl]-N-cyclohexyl-6-(trifluoromethyl)-3-piperidinecarboxamide] was run?
**A.** The IC50 was under 1000 nM.

**Q.** `C[C@@H]1CO[C@H](C(=O)Nc2ccccc2)CN1c1cc(-c2ccc3c(N)n[nH]c3c2)nc(N)n1` [Example 67, (2S,5R)-4-[2-Amino-6-(3-amino-1H-indazol-6-yl)-4-pyrimidinyl]-5-methyl-N-phenyl-2-morpholinecarboxamide] was tested. Which IC50 did it give?
**A.** Its IC50 is under 1000 nM.

**Q.** How did the IC50 turn out when `CNc1nc(-c2ccc3c(N)n[nH]c3c2)cc(N2C[C@@H](C(=O)Nc3ccccc3)CC[C@H]2C)n1` [Example 77, (3S,6R)-1-[6-(3-amino-1H-indazol-6-yl)-2-(methylamino)-4-pyrimidinyl]-6-methyl-N-phenyl-3-piperidinecarboxamide] was run?
**A.** The IC50 was under 1000 nM.

**Q.** `CNc1nc(-c2ccc3c(N)n[nH]c3c2)cc(N2C[C@@H](C(=O)NC3CCCCC3)CC[C@H]2C)n1` [Example 78, (3S,6R)-1-[6-(3-Amino-1H-indazol-6-yl)-2-(methylamino)-4-pyrimidinyl]-N-cyclohexyl-6-methyl-3-piperidinecarboxamide] was tested. Which IC50 did it give?
**A.** The IC50 was under 1000 nM.

**Q.** How did the IC50 turn out when `CNc1nc(-c2ccc3cn[nH]c3c2)cc(N2C[C@@H](C(=O)NCc3ccccc3)CC[C@H]2C)n1` [Example 81, (3S,6R)-1-[6-(1H-Indazol-6-yl)-2-(methylamino)-4-pyrimidinyl]-6-methyl-N-(phenylmethyl)-3-piperidinecarboxamide] was run?
**A.** Its IC50 is under 1000 nM.

**Q.** For `CNc1nc(-c2ccc3c(C)n[nH]c3c2)cc(N2C[C@@H](C(=O)NC3CCCCC3)CC[C@H]2C)n1` [Example 83, (3S,6R)—N-Cyclohexyl-6-methyl-1-[2-(methylamino)-6-(3-methyl-1H-indazol-6-yl)-4-pyrimidinyl]-3-piperidinecarboxamide], which IC50 is on record?
**A.** Its IC50 is under 1000 nM.

**Q.** For `CNc1nc(-c2cc(F)c3c(N)n[nH]c3c2)cc(N2C[C@@H](C(=O)NCc3ccccc3)CC[C@H]2C)n1` [Example 86, (3S,6R)-1-[6-(3-Amino-4-fluoro-1H-indazol-6-yl)-2-(methylamino)-4-pyrimidinyl]-6-methyl-N-(phenylmethyl)-3-piperidinecarboxamide], which IC50 is on record?
**A.** Its IC50 is under 1000 nM.

**Q.** For `C[C@@H]1CC[C@H](C(=O)NC2CCCCC2)CN1c1cc(-c2ccc3c(N)n[nH]c3c2)nc(N)n1` [Example 121, (3S,6R)-1-[2-Amino-6-(3-amino-1H-indazol-6-yl)-4-pyrimidinyl]-N-cyclohexyl-6-methyl-3-piperidinecarboxamide], which IC50 is on record?
**A.** The IC50 was under 1000 nM.

**Q.** With `CC1CCC(NC(=O)[C@H]2CC[C@@H](C)N(c3cc(-c4ccc5c(N)n[nH]c5c4)nc(N)n3)C2)CC1` (stereo partly drawn) [Example 150, (3S,6R)-1-[2-Amino-6-(3-amino-1H-indazol-6-yl)-4-pyrimidinyl]-6-methyl-N-(4-methylcyclohexyl)-3-piperidinecarboxamide] as the compound, how does the IC50 read?
**A.** The IC50 was under 1000 nM.

**Q.** For `CNc1nc(-c2ccc3c(N)n[nH]c3c2)cc(N2C[C@@H](C(=O)NCc3ccccc3)OC[C@H]2C)n1` [Example 161, (2S,5R)-4-[6-(3-Amino-1H-indazol-6-yl)-2-(methylamino)-4-pyrimidinyl]-5-methyl-N-(phenylmethyl)-2-morpholinecarboxamide], which IC50 is on record?
**A.** The IC50 was under 1000 nM.

**Q.** How did the IC50 turn out when `CC[C@@H]1CO[C@H](C(=O)NCc2ccccc2)CN1c1cc(-c2ccc3c(N)n[nH]c3c2)nc(NC)n1` [Example 176, (2S,5R)-4-[6-(3-Amino-1H-indazol-6-yl)-2-(methylamino)-4-pyrimidinyl]-5-ethyl-N-(phenylmethyl)-2-morpholinecarboxamide] was run?
**A.** Its IC50 is under 1000 nM.

**Q.** Which IC50 does the source give for `C[C@@H]1C[C@@H](NC(=O)OC(C)(C)C)CN(c2cc(-c3ccc4c(N)n[nH]c4c3)nc(N)n2)C1` [Example 212, 1,1-Dimethylethyl{(3R,5R)-1-[2-amino-6-(3-amino-1H-indazol-6-yl)-4-pyrimidinyl]-5-methyl-3-piperidinyl}carbamate] here?
**A.** The IC50 was under 1000 nM.

molecular target: T1, full length PDK1 (Homo sapiens, UniProt O15530); assay: PDK1 enzyme assays (substrate phosphorylation: LEADseeker scintillation proximity, TR-FRET, PDKtide); assay type: biochemical; details: in at least one experimental run, read-out: IC50 against full length PDK1
T1 construct: Full-length human 3-Phosphoinositide Dependent protein Kinase-1; made in house; host or cells: baculovirus / Sf9 insect cells
T1 sequence (O15530 1-556): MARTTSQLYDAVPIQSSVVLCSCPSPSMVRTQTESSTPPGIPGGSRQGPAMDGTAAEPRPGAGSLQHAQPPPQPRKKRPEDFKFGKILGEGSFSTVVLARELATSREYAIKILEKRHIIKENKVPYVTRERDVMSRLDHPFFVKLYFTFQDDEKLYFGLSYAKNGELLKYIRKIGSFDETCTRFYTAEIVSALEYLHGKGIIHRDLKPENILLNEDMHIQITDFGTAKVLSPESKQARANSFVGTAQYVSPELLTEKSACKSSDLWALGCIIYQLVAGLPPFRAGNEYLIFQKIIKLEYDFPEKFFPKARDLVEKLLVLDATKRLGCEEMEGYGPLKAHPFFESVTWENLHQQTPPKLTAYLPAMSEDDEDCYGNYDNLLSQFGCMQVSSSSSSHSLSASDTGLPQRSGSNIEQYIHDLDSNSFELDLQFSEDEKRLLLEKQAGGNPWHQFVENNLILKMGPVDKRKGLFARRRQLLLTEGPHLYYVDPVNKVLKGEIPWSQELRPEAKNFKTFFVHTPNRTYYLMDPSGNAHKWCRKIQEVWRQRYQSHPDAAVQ
Protocol: Substrate phosphorylation assays are carried out as follows:
Biotinylated-hAKT1: Human AKT1 (containing amino acid residues 136-480, as annotated by National Center for Biotechnology Information (NCBI) accession number AAL55732.1, with a MetLysLysHis6 N-terminal addition) is purified to >90% from lysate of baculovirus expression by Nickel Chelating ProBond resin (InVitrogen), Q-Sepharose Fast Flow, and Superdex 200 size exclusion chromatography. Biotinylation is achieved using EZ-Link Sulfo-NHS-LC Biotin (Pierce). Samples, in 25 mM HEPES, pH 7.5, 200 mM NaCl, 2 mM DTT, and 30% glycerol are stored at −80C until use.
Full-length human 3-Phosphoinositide Dependent protein Kinase-1 (hPDK1; National Center for Biotechnology Information (NCBI) accession number AAH39158.1 with a MetGlyHis6 N-terminal addition) is purified from baculovirus expression in Sf9 cells. Purity of approximately 80% is achieved by the use of chelation chromatography (Ni-NTA Superflow) and desalting columns. Samples, in 25 mM HEPES, 150 mM NaCl, 2.5 mM DTT, 0.05% Triton, 30% glycerol, pH 8.0, are stored at −80° C. until use.
The 39 amino acid biotinylated-PDKtide peptide Seq. ID No. 1: (Biotin-Ahx-[…]) was custom synthesized by 21st Century Biochemicals. […] The concentration was confirmed by quantitative amino acid analysis.
Scintillation Proximity (LEADseeker) Kinase Assay of Purified hPDK1:
Assays are performed in 384-well microtiter plates (Greiner, Catalog No. 784075). The reaction volume (10 μl) contains, in final concentrations, 25 mM MOPS (pH 7.5), 10 mM MgCl2, 50 mM KCl, 0.1 mg/ml BSA, 1 μM ATP, 3 uCi/ml ^33PγATP, 5 mM DTT, 1 mM CHAPS or 0.05% Tween20, 0.35 μM AKT1 biotinylated protein, and 10 nM hPDK1.
Compounds, titrated in DMSO, are evaluated at eleven concentrations ranging from 50 μM to 2 μM. […] Reactions are stopped after 3 hours at room temperature by the addition of 50 mM EDTA, 5 mg/ml LEADseeker beads (GE Healthcare) in PBS (10 ul). Beads are allowed to settle overnight, and samples are imaged on Viewlux (PerkinElmer).
The data for compound concentration responses were plotted as % Inhibition, calculated with the data reduction formula 100*(1−[(U1−C2)/(C1−C2)]), versus concentration of compound, where
Data were fitted to the curve described by:
TR-FRET Kinase Assay of Purified hPDK1:
Assays are performed in 384-well microtiter plates (Greiner, Catalog No. 784076).
As previously described for the Scintillation Proximity protocol, hPDK1 is pre-incubated (30 minutes at room temperature) with compounds before initiating phosphorylation of AKT1 by addition of substrate to the hPDK1 and compound mix. Reactions are stopped after 4-6 hours at room temperature by the addition to final concentrations of 0.02 M EDTA, 0.0875 μM Streptavidin APC (PerkinElmer), 0.03 μM AKT1 (phospho T308) antibody (Abcam Inc.), 0.00375 μM Lance Eu-labeled anti rabbit IgG Antibody (PerkinElmer). Antibody binding reaches equilibrium in 30 minutes before signal is read on an EnVision™ 2103 Multilabel Reader (PerkinElmer). APC Signals are normalized to Europium signal. Data processing is the same as described for the Scintillation Proximity assay with the exception of the generation of the “C2” control by addition of buffer without hPDK1 to control wells at t=0 instead of EDTA.
Scintillation Proximity (LEADseeker) Kinase Assay of Purified hPDK1 using Biotinylated-PDKtide Peptide:
Assays are performed in 384-well microtiter plates (Greiner, Catalog No. 784075). The reaction volume (10 μl) contains, in final concentrations, 25 mM MOPS (pH 7.5), 10 mM MgCl2, 50 mM KCl, 0.1 mg/ml BSA, 1 μM ATP, 3 uCi/ml ^33PγATP, 5 mM DTT, 0.5 mM CHAPS, 1 μM biotinylated-PDKtide peptide, and 0.5 nM hPDK1.
Compounds, titrated in DMSO, are evaluated at eleven concentrations ranging from 25 μM to 0.4 pM. […] Reactions are stopped after 4 hours at room temperature by the addition of 50 mM EDTA, 5 mg/ml LEADseeker beads (GE Healthcare) in PBS (10 ul).

**Q.** `CNc1nc(-c2ccc3c(C)n[nH]c3c2)cc(N2C[C@@H](C(=O)NC3CCCCC3)CC[C@H]2C)n1` [Example 83, (3S,6R)—N-Cyclohexyl-6-methyl-1-[2-(methylamino)-6-(3-methyl-1H-indazol-6-yl)-4-pyrimidinyl]-3-piperidinecarboxamide] was tested. Which IC50 did it give?
**A.** Its IC50 is under 20 nM.

**Q.** How did the IC50 turn out when `CNc1nc(-c2ccc3c(N)n[nH]c3c2)cc(N2C[C@@H](C(=O)NCc3ccccc3)OC[C@H]2C)n1` [Example 161, (2S,5R)-4-[6-(3-Amino-1H-indazol-6-yl)-2-(methylamino)-4-pyrimidinyl]-5-methyl-N-(phenylmethyl)-2-morpholinecarboxamide] was run?
**A.** The IC50 was under 20 nM.
